Legend:
[1] = test system: DU-145; assay: Cell cycle arrest in human DU145 cells assessed as accumulation at G2/M phase at 5 uM after 12 hrs by flow cytometry (reference value: 18.12%); type: functional
[2] = test system: LNCaP; assay: Effect on total STAT3 protein level in human LNCAP cells assessed as ratio of STAT3 protein level to GAPDH protein level at 5 uM after 12 hrs by Western blot analysis (reference value: 1); type: ADME, cell-based
[3] = test system: DU-145; assay: Cell cycle arrest in human DU145 cells assessed as accumulation at G2/M phase at 5 uM after 48 hrs by flow cytometry (reference value: 18.12%); type: functional
[4] = target: T1, Signal transducer and activator of transcription 3 (Homo sapiens, UniProt P40763); assay: Binding affinity to STAT3 in human DU145 cell lysates assessed as reduction in pronase-induced STAT3 digestion by measuring ratio of STAT3 protein level to GAPDH protein level incubated for 1 hr in absence of pronase by Western blot analysis
[5] = test system: DU-145; assay: Cell cycle arrest in human DU145 cells assessed as accumulation at S phase at 5 uM after 12 hrs by flow cytometry (reference value: 6.6%); type: functional
[6] = target: T1, Signal transducer and activator of transcription 3; assay: Inhibition of STAT3 phosphorylation at Tyr705 residues in human DU145 cells assessed as ratio of phosphorylated STAT3 protein level to GAPDH protein level at 5 uM after 3 hrs by Western blot analysis (reference value: 1); type: cell-based
[7] = test system: PC-3; assay: Growth inhibition of human PC3 cells after 48 hrs by WST-1 assay; type: functional; details: PC-3, 48 h
[8] = test system: DU-145; assay: Induction of apoptosis in human DU145 cells at 5 uM after 48 hrs by flow cytometry (reference value: 0.61%); type: functional
[9] = test system: DU-145; assay: Cell cycle arrest in human DU145 cells assessed as accumulation at G0/G1 phase at 5 uM after 12 hrs by flow cytometry (reference value: 24.07%); type: functional
[10] = test system: DU-145; assay: Cell cycle arrest in human DU145 cells assessed as accumulation at G0/G1 phase at 5 uM after 48 hrs by flow cytometry (reference value: 24.07%); type: functional
[11] = target: T1, Signal transducer and activator of transcription 3; assay: Binding affinity to STAT3 in human DU145 cell lysates assessed as reduction in pronase-induced STAT3 digestion by measuring ratio of STAT3 protein level to GAPDH protein level at 50 uM incubated for 1 hr followed by 0.05% pronase addition for 10 mins by Western blot analysis (reference value: 0.4)
[12] = target: T1, Signal transducer and activator of transcription 3; assay: Inhibition of STAT3 in human DU145 cells assessed as ratio of cyclin A protein level to tubulin protein level at 5 uM after 48 hrs by Western blot analysis (reference value: 1); type: cell-based
[13] = target: T1, Signal transducer and activator of transcription 3; assay: Binding affinity to STAT3 in human DU145 cell lysates assessed as reduction in pronase-induced STAT3 digestion by measuring ratio of STAT3 protein level to GAPDH protein level at 1 uM incubated for 1 hr followed by 0.05% pronase addition for 10 mins by Western blot analysis (reference value: 1)
[14] = target: T1, Signal transducer and activator of transcription 3; assay: Inhibition of STAT3 in human DU145 cells assessed as ratio of survivin protein level to tubulin protein level at 5 uM after 48 hrs by Western blot analysis (reference value: 1); type: cell-based
[15] = target: T1, Signal transducer and activator of transcription 3; assay: Stabilization of STAT3 in human DU145 cell lysates by measuring ratio of STAT3 protein level to GAPDH protein level at 50 uM incubated for 1 hr in absence of pronase by Western blot analysis (reference value: 1)
[16] = test system: DU-145; assay: Effect on total STAT3 protein level in human DU145 cells assessed as ratio of STAT3 protein level to GAPDH protein level at 1 uM after 24 hrs by Western blot analysis (reference value: 1); type: ADME, cell-based; details: du-145, 24 h
[17] = test system: LNCaP; assay: Growth inhibition of human LNCAP cells after 48 hrs by WST-1 assay; type: functional
[18] = target: T1, Signal transducer and activator of transcription 3; assay: Inhibition of STAT3 phosphorylation at Tyr705 residues in human DU145 cells assessed as ratio of phosphorylated STAT3 protein level to GAPDH protein level at 5 uM after 24 hrs by Western blot analysis (reference value: 1); type: cell-based
[19] = test system: DU-145; assay: Effect on total STAT3 protein level in human DU145 cells assessed as ratio of STAT3 protein level to GAPDH protein level at 5 uM after 6 hrs by Western blot analysis (reference value: 1); type: ADME, cell-based; details: du-145, 6 h
[20] = target: T1, Signal transducer and activator of transcription 3; assay: Inhibition of STAT3-induced ERK1/2 phosphorylation in human DU145 cells assessed as ratio of phosphorylated ERK1/2 protein level to GAPDH protein level at 5 uM after 12 hrs by Western blot analysis (reference value: 1); type: cell-based
[21] = test system: DU-145; assay: Induction of apoptosis in human DU145 cells at 5 uM after 12 hrs by flow cytometry (reference value: 0.61%); type: functional
[22] = target: T1, Signal transducer and activator of transcription 3; assay: Binding affinity to STAT3 in human DU145 cell lysates assessed as reduction in pronase-induced STAT3 digestion by measuring ratio of STAT3 protein level to GAPDH protein level at 10 uM incubated for 1 hr in absence of pronase by Western blot analysis (reference value: 1)
[23] = target: T1, Signal transducer and activator of transcription 3; assay: Binding affinity to STAT3 in human DU145 cell lysates assessed as reduction in pronase-induced STAT3 digestion by measuring ratio of STAT3 protein level to GAPDH protein level at 50 uM incubated for 1 hr followed by 0.01% pronase addition for 10 mins by Western blot analysis (reference value: 0.7)
[24] = target: T1, Signal transducer and activator of transcription 3; assay: Binding affinity to STAT3 in human DU145 cell lysates assessed as reduction in pronase-induced STAT3 digestion by measuring ratio of STAT3 protein level to GAPDH protein level at 50 uM incubated for 1 hr followed by 0.005% pronase addition for 10 mins by Western blot analysis (reference value: 0.9)
[25] = test system: DU-145; assay: Effect on total STAT3 protein level in human DU145 cells assessed as ratio of STAT3 protein level to GAPDH protein level at 0.1 uM after 24 hrs by Western blot analysis (reference value: 1); type: ADME, cell-based; details: du-145, 24 h
[26] = test system: DU-145; assay: Effect on total STAT3 protein level in human DU145 cells assessed as ratio of STAT3 protein level to GAPDH protein level at 0.5 uM after 24 hrs by Western blot analysis (reference value: 1); type: ADME, cell-based; details: du-145, 24 h
[27] = target: T1, Signal transducer and activator of transcription 3; assay: Binding affinity to STAT3 in human DU145 cell lysates assessed as reduction in pronase-induced STAT3 digestion by measuring ratio of STAT3 protein level to GAPDH protein level at 50 uM incubated for 1 hr followed by 0.1% pronase addition for 10 mins by Western blot analysis (reference value: 0.2)
[28] = test system: DU-145; assay: Effect on total ERK1/2 protein level in human DU145 cells assessed as ratio of ERK1/2 protein level to GAPDH protein level at 5 uM after 3 hrs by Western blot analysis (reference value: 1); type: ADME, cell-based; details: du-145, 3 h
[29] = target: T1, Signal transducer and activator of transcription 3; assay: Inhibition of STAT3 in human DU145 cells assessed as ratio of cyclin D1 protein level to tubulin protein level at 5 uM after 48 hrs by Western blot analysis (reference value: 1); type: cell-based

T1 sequence (P40763 whole entry): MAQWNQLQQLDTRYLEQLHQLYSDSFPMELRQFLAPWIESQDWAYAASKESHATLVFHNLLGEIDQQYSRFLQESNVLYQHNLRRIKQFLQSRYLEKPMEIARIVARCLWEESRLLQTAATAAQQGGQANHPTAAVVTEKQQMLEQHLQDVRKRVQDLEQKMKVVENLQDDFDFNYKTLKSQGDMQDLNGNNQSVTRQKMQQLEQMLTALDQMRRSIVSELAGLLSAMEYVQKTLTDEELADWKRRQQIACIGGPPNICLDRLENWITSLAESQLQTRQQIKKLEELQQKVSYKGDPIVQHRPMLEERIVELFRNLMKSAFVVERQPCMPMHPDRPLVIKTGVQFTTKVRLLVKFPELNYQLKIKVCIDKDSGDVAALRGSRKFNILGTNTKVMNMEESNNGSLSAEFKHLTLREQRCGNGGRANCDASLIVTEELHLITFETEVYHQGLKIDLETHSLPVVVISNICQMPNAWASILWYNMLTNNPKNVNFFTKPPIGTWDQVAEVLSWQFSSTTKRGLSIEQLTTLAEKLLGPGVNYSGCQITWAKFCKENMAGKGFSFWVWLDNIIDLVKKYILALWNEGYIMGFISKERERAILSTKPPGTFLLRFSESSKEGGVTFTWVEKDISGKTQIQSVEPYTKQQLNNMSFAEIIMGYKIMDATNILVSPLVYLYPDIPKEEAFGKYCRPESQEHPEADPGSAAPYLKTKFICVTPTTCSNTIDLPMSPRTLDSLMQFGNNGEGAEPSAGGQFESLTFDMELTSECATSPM

`C=C(C)C(=O)N(Cc1ccc(Br)cc1)C(=O)/C=C/c1cc(OC)c(OC)c(OC)c1` was tested, and the Activity [1] was 21.05%, the Ratio [2] was 1.2 and the Activity [3] was 18.95%. For the same molecule, the Activity [4] was “Dose-dependent effect”, the Activity [5] was 8.76% and the Ratio [6] was 0.2. The GI50 [7] was greater than 10 µM, the Activity [8] was 7.61% and the Activity [9] was 38.15%. For the same molecule, the Activity [10] was 26.59%, the Ratio [11] was 0.5 and the Ratio [12] was 0.6. It also gave a Ratio [13] of 1.1, a Ratio [14] of 0.7 and a Ratio [15] of 1. It also gave a Ratio [16] of 1.1, a GI50 [17] of 7.7 µM and a Ratio [18] of 0.3. For the same molecule, the Ratio [19] was 1, the Ratio [20] was 2.3 and the Activity [21] was 0.65%. It also gave a Ratio [22] of 1.1, a Ratio [23] of 0.6 and a Ratio [24] of 0.8. For the same molecule, the Ratio [25] was 1.1, the Ratio [26] was 1.1 and the Ratio [27] was 0.3. The Ratio [28] was 1.1 and the Ratio [29] was 0.9.
